Measured values reported in patent US20050090522A1 (priority 2001, published 2005).
Where two headings read alike, the source gives them in different places.

How the values were obtained:
HeLa cells = test: Cytotoxicity assay in HeLa cells (MTT dye reduction, CC50); settings: cytotoxicity; Yes = CC50 above 100 uM, No = not
Procedure, shortened: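 HeLa cells expressing CD4 and CCR5, grown in DMEM with 10% FBS, were used for cytotoxicity testing by MTT dye reduction; the text gives no further cytotoxicity conditions. The parallel antiviral assay exposed the same cells to compound at final <10 μM for 72 h.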

HIV-1 = HIV-1 single-round infectious luciferase reporter virus (pseudotype) assay in HeLa CD4 CCR5 cells; assay type: cell-based
Procedure, shortened: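 HeLa CD4 CCR5 cells (5×10^4/well, DMEM + 10% FBS) were treated with compound (final <10 μM) and infected with single-round luciferase reporter virus made in 293 cells, at MOI ~0.01. Luciferase was read 72 h post infection. EC50 came from 10-concentration percent-inhibition curves fitted to a four-parameter logistic model.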

[1] = Rat IV and PO pharmacokinetic studies; settings: for clearance / AUC(0-t): male, Sprague-Dawley, in vivo; for clearance: iv, 1 mg/kg, CL; for clearance / CL, iv: iv dosing at 1 mg/kg; for AUC(0-t): po, 5 mg/kg
Method: Rat Pharmacokinetic Studies: For the IV and PO pharmacokinetic studies of compounds in rats, the compound was dissolved in PEG-400/ethanol (90/10) as a solution. Rat. Male Sprague-Dawley rats (300-350 g, Hilltop Lab Animals, Inc., Scottdale, Pa.) with cannulas implanted in the jugular vein were used. The rats were fasted overnight in the PO pharmacokinetic studies. Blood samples of 0.3 ml were collected from the jugular vein in EDTA-containing microtainer tubes (Becton Dickinson, Franklin Lakes, N. J.), and centrifuged to separate plasma. In the IV study, the test compound was delivered at 1 mg/kg as a bolus over 0.5 min (n=3). […] Quantitation of Compounds in Plasma. […] The resulting supernates were separated from the precipitated proteins by centrifugation for 10 minutes and transferred to autosampler vials. Samples were either prepared manually, or with the use of the Tomtec automated liquid handler. An aliquot of 5 μL was injected for analysis. The HPLC system consisted of two Shimadzu LC10AD pumps (Columbia, Md.), a Shimadzu SIL-HTC autosampler (Columbia, Md.), and a Hewlett Packard Series 1100 column compartment (Palo Alto, Calif.). The column was a YMC Pro C18 (2.0×50 mm, 3 μm particles, Waters Co., Milford, Mass.), maintained at 60° C. and a flow rate of 0.3 ml/min. The mobile phase consisted of 10 mM ammonium formate and 0.1% formic acid in water (A) and 100% 10 mM ammonium formate and 0.1% formic acid in methanol (B). […] The mobile phase was then returned to initial conditions and the column re-equilibrated for 1 minute. Total analysis time was 4 minutes. The HPLC was interfaced to a Micromass Quattro LC. Ultra high purity nitrogen was used as the nebulizing and desolvation gas at flow rates of 100 L/hr for nebulization and 1100 L/hr for desolvation. The desolvation temperature was 300° C. and the source temperature was 150° C. Data acquisition utilized selected reaction monitoring (SRM). Ions representing the (M+H)^+ species for the compound and the internal standard were selected in MS 1 and collisionally dissociated with argon at a pressure of 2×10^−3 torr to form specific product ions which were subsequently monitored by MS2.
For accuracy, the determined measure of viral inhibition is an EC50; but the minimum plasma concentrations which should be maintained in a patient is generally believed to be at least four or five fold higher. […] Lower is better. • 4) Estimating potential exposure in man by measuring parameters such as AUC and rate of clearance by oral and iv dosing in rats. High exposure and low clearance was desired.
The rat model is an initial model used to assess potential for exposure in man.

[2] = Metabolic stability in pooled human liver microsomes (HLM); settings: pooled human liver microsomes, 3 μM drug; Low/Intermediate/High
Procedure, shortened: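 Pooled human liver microsomes (0.9 mg/ml final) in 0.1 M potassium phosphate pH 7.4 with 0.033 mM MgCl2 and an NADPH-regenerating system. Compound pre-incubated 2 min, reaction started with cofactors, run 10 min at 37° C, quenched in acetonitrile and analysed by LC/MS.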

[3] = Human immunodeficiency virus 1, HeLa-CD4/CCR5, read-out: EC50 category, HIV-1 single-round reporter virus assay, category 1/2/3 per Table A1 key
[4] = AUC 24 h, oral dosing at 5 mg/kg
[5] = Human immunodeficiency virus 1, HeLa-CD4/CCR5, read-out: EC50 Group from TABLE 1, HeLa CD4 CCR5 cells, single-round infectious luciferase reporter virus

| SMILES | CC50 > 100 uM (HeLa cells) | EC50 (HIV-1; Human immunodeficiency virus 1, HeLa-CD4/CCR5, read-out: EC50 Group from Table 1, Table 4, HeLa CD4 CCR5 cells, single-round luciferase reporter virus) [nM] | EC50 (HIV-1; [3]) [nM] | clearance [1] [mL/min/kg] | AUC(0-t) [1, 4] [ng·h/mL] | HLM predicted human clearance class [2] | CL, iv [1] [mL/min/kg] | AUC 24 h ([1]; oral dosing at 5 mg/kg) [ng·h/mL] | EC50 (HIV-1; [5]) [nM] | AUC(0-t) [1] [ng·h/mL] |
| --- | --- | --- | --- | --- | --- | --- | --- | --- | --- | --- |
| O=C(C(=O)N1CCN(C(=O)c2ccccc2)CC1)c1c[nH]c2c(-n3nccn3)ccnc12 [Example 205, 1-(4-benzoyl-piperazin-1-yl)-2-(7-[1,2,3]triazol-2-yl-1H-pyrrolo[3,2-b]pyridin-3-yl)-ethane-1,2-dione] | Yes | < 1000 | 0.2 to 1000 | 5.4 ± 0.4 | 9600 ± 1200 | Low (0-0.100) | – | – | – | – |
| COc1ncc(-c2nccc3c(C(=O)C(=O)N4CCN(C(=O)c5ccccc5)C[C@H]4C)c[nH]c23)c(OC)n1 [Example 12, 1-benzoyl-3-®-methyl-4-[(7-(2,4-dimethoxy-pyrimidin-5-yl)-6-azaindol-3-yl)-oxoacetyl]piperazine] | – | – | – | – | – | – | 11.9 ± 1.8 | 4700 ± 1100 | – | – |
| COc1cnc(-c2cnccn2)c2[nH]cc(C(=O)C(=O)N3CCN(C(=O)c4ccccn4)CC3)c12 [Example 102, 1-picolinoyl-4-[(4-methoxy-7-(pyrazin-2-yl)-6-azaindol-3-yl)-oxoacetyl]piperazine] | Yes | – | 0.2 to 1000 | 12 ± 5.5 | 6900 ± 1300 | Low (0-0.100) | – | – | < 1000 | – |
| COc1cnc(-c2ncon2)c2[nH]cc(C(=O)C(=O)N3CCN(C(=O)c4ccccc4)CC3)c12 [Example 226] | Yes | – | < 0.2 | 24.5 ± 3 | 500 ± 130 | Low (0-0.100) | – | – | < 1000 | – |
| COc1cnc(-n2ccnn2)c2[nH]cc(C(=O)C(=O)N3CCN(C(=O)c4ccccc4)CC3)c12 [Example 188, 1-benzoyl-4-[(4-methoxy-7-(1,2,3-triazol-1-yl)-6-azaindol-3-yl)-oxoacetyl]piperazine] | Yes | – | < 0.2 | 2.4 ± 0.08 | 20000 ± 4600 | Low (0-0.100) | – | – | < 1000 | – |
| COc1cnc(-n2cnc(C)n2)c2[nH]cc(C(=O)C(=O)N3CCN(C(=O)c4ccccc4)CC3)c12 [Example 316] | – | – | < 0.2 | – | – | – | – | – | < 1000 | 52000 ± 12000 |
| COc1cnc(-n2cncn2)c2[nH]cc(C(=O)C(=O)N3CCN(C(=O)c4ccccc4)CC3)c12 [Example 187, 1-benzoyl-4-[(4-methoxy-7-(1,2,4-triazol-1-yl)-6-azaindol-3-yl)-oxoacetyl]piperazine] | Yes | – | < 0.2 | 2.4 ± 0.5 | 22400 ± 7200 | Low (0-0.100) | – | – | < 1000 | – |
| Nc1ccn(-c2ncc(F)c3c(C(=O)C(=O)N4CCN(C(=O)c5ccccc5)CC4)c[nH]c23)n1 [Example 309] | Yes | – | < 0.2 | 34.3 ± 2.6 | 90 ± 50 | Low (0-0.100) | – | – | < 1000 | – |
| Cc1ccc(-c2nccc3c(C(=O)C(=O)N4CCN(C(=O)c5ccccc5)C[C@H]4C)c[nH]c23)cc1N [Example 3, 1-benzoyl-3-®-methyl-4-[(7-(3-amino-4-methylphenyl)-6-azaindol-3-yl)-oxoacetyl] piperazine] | – | – | – | – | – | – | 1.3 ± 4.0 | 6300 ± 2700 | – | – |
| O=C(C(=O)N1CCN(C(=O)c2ccccc2)CC1)c1c[nH]c2c(-n3ccnn3)ncc(F)c12 [Example 216] | – | – | < 0.2 | – | 32000 ± 12000 | Low (0-0.100) | – | – | < 1000 | – |
| Cc1ncn(-c2ncc(F)c3c(C(=O)C(=O)N4CCN(C(=O)c5ccccc5)CC4)c[nH]c23)n1 [Example 306] | – | – | < 0.2 | 0.39 ± 0.07 | 160000 ± 11000 | Low (0-0.100) | – | – | < 1000 | – |
| O=C(C(=O)N1CCN(C(=O)c2ccccc2)CC1)c1c[nH]c2c(-c3cnco3)ncc(F)c12 [Example 145] | – | – | < 0.2 | – | 12000 ± 3800 | – | 1.4 ± 0.29 | – | < 1000 | – |
